Legend:
[1] = Stability of endoxifen free base in polar organic solvents in the absence and presence of skin; type: physicochemical; conditions: for potency and stability in the solvents in the presence of skin: compared with potency in absence of skin after 2 days; for % Potency: relative to initiation of study
Method: (§1) HPLC-UV. Briefly, (E)- and (Z)-endoxifen were analyzed by High Performance Liquid Chromatography, HPLC (instrument: Agilent 1100) using a UV detector (Agilent). Chromatographic resolution was obtained using a Luna Phenyl Hexyl Column ([…]×150 mm) at a column temperature of 40° C. Samples were injected in an injection volume of 10 ul and run at a flow rate of 1.0 ml/min. The mobile phase system used consisted of: A) water with 10 mM ammonium formate (HCOONH4) with 0.03% formic acid and B) Methanol with 10 mM ammonium formate (HCOONH4).
The stability studies of endoxifen free base in various pure polar organic solvents/MPEs were performed as described below. Accelerated stability studies of (Z)-endoxifen free base in solvents/MPEs were performed over a course of 2 days at 45° C. in both the presence and the absence of human cadaver skin to assess the degree to which the (Z)-endoxifen conversion to (E)-endoxifen by isomerization and or chemical degradation of the endoxifen is accelerated upon contact with skin and skin components. (Z)-Endoxifen solutions at ˜80% of saturation concentrations were prepared in 1 ml batches in solvents as listed below in the Table 3. The potencies of (Z)-endoxifen and (E)-endoxifen were determined by HPLC-UV analysis as described above. Potency results are shown compared with potencies measured when the sample were stored at the initiation of stability study.

[2] = Solubility of (Z) and (E)-endoxifen in polar organic solvents (HPLC-UV); type: physicochemical
Method: (Z)-endoxifen free base was synthesized as described above in Example 1. (Z)-endoxifen was solubilized in various solvents as provided in Table 1, and tested for physical and chemical stability in solution. The solutions were prepared in ˜1 ml batches typically for solubility and stability testing. The mixture was stirred overnight on a rotisserie at room temperature. The next, […], the suspension was filtered using a syringe filter (0.2 um pore size GHP membrane). The filtrated solution was then analyzed for the concentration of (Z)-endoxifen and (E)-endoxifen as using a validated HPLC-UV method as described below.
as §1
UV detection of (E)-endoxifen and (Z)-endoxifen isomers was performed at 243 nm with a run time of 30 minutes. Retention times for (E)-endoxifen and (Z)-endoxifen were 15.14 m and 16.25 m respectively. […]

[3] = aqueous medium, 45° C., day 15, starting from 98%; cited from earlier work
[4] = in Diethyl Sebacate, 45° C. + skin (human cadaver), 2 days
[5] = in Diethylene glycol monoethyl ether, 45° C. + skin (human cadaver), 2 days
[6] = in Dimethyl Isosorbide, 45° C. + skin (human cadaver), 2 days
[7] = in Dipropylene Glycol, 45° C. + skin (human cadaver), 2 days
[8] = in Isopropyl Myristate, 45° C. + skin (human cadaver), 2 days
[9] = in PEG 300, 45° C. + skin (human cadaver), 2 days

Row | SMILES | potency and stability in the solvents in the presence of skin ([1]; 45° C.) | % Potency [1, 4] [%] | % Potency [1, 5] [%] | % Potency ([1]; in Diisopropyl Adipate, 45° C. + skin (human cadaver), 2 days) [%] | % Potency [1, 6] [%] | % Potency [1, 7] [%] | % Potency [1, 8] [%] | % Potency [1, 9] [%] | stability of (Z)-endoxifen in polar organic solvents ([2]; polar organic solvents of Table 1) | stability of dissolved endoxifen ([1]; dissolved in dimethyl isosorbide and isopropyl myristate, 2 days, 45° C.) | solubility in polar organic solvents/MPEs ([2]; DMSO, ethanol, diethylene monoethyl ether, and oleic acid) | (Z)-endoxifen remaining after degradation [3] [%]
1 | CC/C(=C(\c1ccc(O)cc1)c1ccc(OCCNC)cc1)c1ccccc1 [(Z)-endoxifen free base, (Z)-4-(1-(4-(2-(methylamino)ethoxy)phenyl)-2-phenylbut-1-enyl)phenol] | maintained potency and stability | 94 | 98 | 99 | 17 | 94 | 63 | 92 | surprisingly stable | – | – | –
2 | CC/C(=C(/c1ccc(O)cc1)c1ccc(OCCNC)cc1)c1ccccc1 [(E)-endoxifen free base] | maintained potency and stability | 99 | 98 | – | 16 | 95 | 68 | 92 | – | – | – | –
3 | CC/C(=C(\c1ccc(O)cc1)c1ccc(OCCNC)cc1)c1ccccc1 [Total Endoxifen free base, (E/Z)-4-[1-[4-[2-(Methylamino)ethoxy]phenyl]-2-phenyl-1-buten-1-yl]-phenol] | – | – | – | – | – | – | – | – | – | poor stability | significantly soluble | –
4 | CC/C(=C(\c1ccc(O)cc1)c1ccc(OCCNC)cc1)c1ccccc1.Cl [(Z)-endoxifen HCl] | – | – | – | – | – | – | – | – | – | – | – | 75
